We go through 29 compounds from ChEMBL document CHEMBL5244207, “Phenanthrenes: A Promising Group of Plant Secondary Metabolites” (J Nat Prod, 2018).

Experiment [1] in a line: Inhibition of elastase (unknown origin). More on the design: species or system Homo sapiens.
The nature of experiment [2]: Antioxidant activity assessed as DPPH radical scavenging activity. It is filed as functional. In general terms: Loss of DPPH colour is used to gauge radical scavenging.
Experiment [3] relates to RAW264.7. Description: Antiinflammatory activity in mouse RAW264.7 cells assessed as reduction in LPS-induced nitric oxide production. In kind it is functional, cell-based.
Experiment [4] concerns RAW264.7. In words: Antiinflammatory activity in mouse RAW 264.7 cells assessed as inhibition of LPS-induced nitric oxide production measured after 48 hrs by Griess reagent assay. In kind it is functional, cell-based. The settings on record: RAW264.7, 48 h.
Experiment [5] can be described thus: Antioxidant activity assessed as hydrogen peroxide scavenging activity. It is filed as functional.
The next experiment deals with HaCaT. In words: Antiinflammatory activity against human HaCaT cells assessed as inhibition of PGE2 production. It is filed as functional, cell-based.
Experiment [6] in a line: Inhibition of H2O2-induced ROS production in human HaCaT cells. In kind it is functional, cell-based.
In the next experiment the test system is K562. In words: Cytotoxicity against human K562 cells assessed as reduction in cell viability. In kind it is functional, cell-based.
A further experiment concerns A549. Description: Cytotoxicity against human A549 cells assessed as reduction in cell viability. It is filed as functional, cell-based.
For a further experiment, the system named is HL-60. Description: Cytotoxicity against human HL-60 cells assessed as reduction in cell viability. In kind it is functional, cell-based.
The subject of experiment [7] is BV-2. Description: Antiinflammatory activity in mouse BV2 cells assessed as reduction in LPS-induced nitric oxide production. It is filed as functional, cell-based.
Experiment [8] is described as follows: Antioxidant activity assessed as ABTS radical scavenging activity. In kind it is functional.
For another experiment, the system named is Pichia kudriavzevii. Description: Antifungal activity against Candida krusei assessed as inhibition of fungal growth measured after 48 hrs by CLSI based agar dilution method. It is filed as functional, organism-based. In general terms: Agar dilution tests growth on a series of plates holding different concentrations.
In experiment [9] the target is Cyclin-dependent kinase 1/cyclin B (Homo sapiens, UniProt P06493). Description: Inhibition of CDK1/Cyclin B (unknown origin) in presence of ATP by scintillation counter analysis. In kind it is protein-complex assay.
Experiment [10] concerns Staphylococcus aureus. Description: Antibacterial activity against Staphylococcus aureus ATCC 43300 assessed as inhibition of bacterial growth. In kind it is functional, organism-based.
Experiment [11] has as its system Staphylococcus aureus. In words: Antibacterial activity against Staphylococcus aureus ATCC 29213 assessed as inhibition of bacterial growth. It is filed as functional, organism-based.
In experiment [12] the test system is Staphylococcus aureus. In words: Antibacterial activity against Staphylococcus aureus ATCC 25923 assessed as inhibition of bacterial growth. In kind it is functional, organism-based.
In experiment [13] the test system is BV-2. Description: Antiinflammatory activity in mouse BV2 cells assessed as reduction in LPS-induced nitric oxide production at 10 uM relative to control. In kind it is functional. More on the design: scale not given: the % may be the effect or the level left.
The test system of the next experiment is MeWo. Description: Cytotoxicity against human MeWo cells by MTT assay. In kind it is functional, cell-based. A general note: Formazan colour is commonly taken as a measure of viable cells.
A further experiment deals with CT26.WT. Description: Cytotoxicity against mouse CT26.WT cells by MTT assay. In kind it is functional, cell-based.
The next experiment deals with CHO. Description: Cytotoxicity against CHO cells by MTT assay. It is filed as functional, cell-based. The settings on record: Cricetulus griseus.
The next experiment has as its system B16-F10. In words: Cytotoxicity against mouse B16-F10 cells by MTT assay. It is filed as functional, cell-based.

SMILES strings stand for the structures. ≈ marks a conversion by molar mass, not a printed value. Where “and” joins values, the source holds several entries; their conditions need not be identical. Equal entries are not always repeated.

As to `O=c1cc(N2CCOCC2)oc2c(-c3ccccc3)cccc12` [LY-294002], in [1], the IC50 (as a rule, the concentration that inhibits the measured activity by half) came to 4.8 µM.
As to `Oc1ccc(/C=C/c2cc(O)cc(O)c2)cc1` [RESVERATROL], the EC50 – broadly, the concentration needed to bring the measured effect to its halfway point – in [2] turned out to be 21.2 µM. The concentration for half-maximal inhibition (IC50) in [2] (read-out: IC50) was 28.7 µM.
In the case of `O=c1c(O)c(-c2ccc(O)c(O)c2)oc2cc(O)cc(O)c12` [QUERCETIN], in the experiment with RAW264.7 [3] (Mus musculus, RAW264.7), the IC50 is 6.6 µM.
Take `C=Cc1c(C)c(O)cc2c1ccc1c(C)c(O)ccc12`: in the experiment on RAW264.7 [4], the 50% inhibitory concentration (IC50) came out at 3.2 µM.
In the case of `COc1cc(O)c2c(c1)CCc1cc(O)c(-c3c(OC)cc(O)c4c3CCc3cc(O)ccc3-4)cc1-2`, in experiment [2], the EC50 worked out at 26.7 µM.
In the case of `COc1cc(O)cc2c1-c1ccc(O)cc1CC2`, the IC50 is 0.08 µM in [5]; 16.7 µM and 8.5 µM in experiment [2] (read-out: IC50).
As to `COC(C)c1cc(O)cc2ccc3c(C)c(O)ccc3c12` (stereo unspecified), the IC50 in the experiment with RAW264.7 [3] (Mus musculus, RAW264.7) came out at 11.1 µM; in the experiment on RAW264.7 [3] (raw264.7), 16.3 µM.
With `COc1cc(O)c2c(c1-c1c(OC)cc(O)c3c1CCc1cc(O)ccc1-3)CCc1cc(O)ccc1-2`, the concentration for a half-maximal effect (EC50) in experiment [2] was 7.7 µM.
Turning to `C=Cc1c(C)c(O)cc2c1CCc1c-2ccc(O)c1C`, the values for the half-maximal inhibitory concentration (IC50) (in experiment [1]; in the experiment with RAW264.7 [4]) were 5.5 µM and 4.9 µM, respectively.
As for `Cc1c(O)ccc2c1CCc1cc(O)cc(CO)c1-2`, the IC50 in the experiment with RAW264.7 [3] (Mus musculus, RAW264.7) was determined as 16 µM.
Turning to `COc1c(O)cc2c3c1COc1cc(O)c(Cc4ccc(O)cc4)c(c1-3)CC2`, the half-inhibitory concentration (IC50) with RAW264.7 [3] (Mus musculus, RAW264.7) amounted to 20.8 µM.
Turning to `COc1ccc(O)c(C(C)(C)C)c1.COc1ccc(O)cc1C(C)(C)C` [BUTYLATED HYDROXYANISOLE], the half-inhibitory concentration (IC50) in [2] amounted to 9.3 µg/mL.
On to `COc1cc2c(c(OC)c1O)-c1ccc(O)cc1CC2` [FLAVANTHRIDIN], for which the concentration for half-maximal inhibition (IC50) in [5] came out at 2 µM.
For `COc1c(O)cc2c3c1COc1cc(O)cc(c1-3)CC2`, the half-inhibitory concentration (IC50) in the experiment with HaCaT was 12.2 µM; in experiment [6], 8.8 µM; in [5], 0.03 µM; in experiment [2] (read-out: IC50) it was 8.4 µM. Besides, the EC50 in experiment [2] turned out to be 8.8 µM.
Consider `COc1cc(O)c2c(c1)CCc1cc(-c3cc(OC)c4c(c3O)CCc3cc(O)ccc3-4)c(O)cc1-2`, for which the IC50 was 6.1 µM in the experiment with K562, 9.2 µM in the experiment on A549 and 1.3 µM in the experiment on HL-60 (hl-60).
As to `OC[C@H]1O[C@@H](O[C@H]2[C@H](O)[C@@H](O)[C@H](Oc3ccc4ccc5ccc(O)cc5c4c3O)O[C@@H]2CO)[C@H](O)[C@@H](O)[C@@H]1O`, the concentration for half-maximal inhibition (IC50) in the experiment with BV-2 [7] worked out at 15.3 µg/mL.
With `C=Cc1c(C)c(O)c(-c2c(O)c(C)c(C=C)c3c2ccc2c(C)c(O)ccc23)c2ccc3c(C)c(O)ccc3c12`, in [8], the Activity stood at 85.2%.
As to `COc1cc(O)c2c(c1)CCc1cccc(O)c1-2`, the EC50 in experiment [2] is 10 µM. Also, in experiment [2] (read-out: IC50), the half-maximal inhibitory concentration (IC50) came out at 21.4 µM.
Turning to `OC(Cn1cncn1)(Cn1cncn1)c1ccc(F)cc1F` [FLUCONAZOLE], the half-maximal inhibitory concentration (IC50) in the experiment with Pichia kudriavzevii came out at 32 µg/mL (≈ 104 µM).
For the compound `Oc1ccc2c(c1)CCc1cc(O)cc(O)c1-2`, the IC50 in experiment [2] (read-out: IC50) was 16.2 µM.
As to `C=Cc1cc(O)cc2c1-c1cc(-c3c(O)cc(C=C)c4c3ccc3c(C)c(O)ccc34)c(O)c(C)c1CC2`, the concentration for half-maximal inhibition (IC50) with RAW264.7 [3] (Mus musculus, RAW264.7) was 7.4 µM.
In the case of `COc1cc2c(c(O)c1OC)CCc1cc(O)c(OC)c(OC)c1-2`, in experiment [9], the concentration for half-maximal inhibition (IC50) worked out at 0.07 µM.
In the case of `N=C(N)NN` [PIMAGEDINE], in [2] (read-out: IC50), the concentration for half-maximal inhibition (IC50) worked out at 21.7 µM.
`COc1cc(O)c(-c2c(O)cc(OC)c3c2ccc2cc(O)ccc23)c2c1-c1ccc(O)cc1CC2` [CIRRHOPETALANTHRIN]: the IC50 with Staphylococcus aureus [10], in the experiment on Staphylococcus aureus [11] and with Staphylococcus aureus [12] was 25 µg/mL (≈ 52 µM) each time.
Consider `COc1cc(O)c2c(c1-c1c(OC)cc(O)c3c1ccc1cc(O)ccc13)CCc1cc(O)ccc1-2`, for which the IC50 in experiment [2] came to 15.1 µg/mL; with HL-60 (Homo sapiens, HL-60, read-out: IC50), 7.3 µg/mL.
Consider `COc1cc(O)c2c(ccc3cc(O)ccc32)c1-c1c(OC)cc(O)c2c1ccc1cc(O)ccc12`, for which the IC50 in experiment [2] was 9.4 µg/mL.
For `Cc1c(O)cc2c3c1CCc1c(C)c(O)cc(c1-3)C2C`, the Activity in the experiment with BV-2 [13] was 11.2%.
With `O=c1[nH]cc(F)c(=O)[nH]1` [FLUOROURACIL], the concentration for half-maximal inhibition (IC50) stood at 8 µg/mL (≈ 61.5 µM) with MeWo, 5 µg/mL (≈ 38.4 µM) in the experiment with CT26.WT, 12 µg/mL (≈ 92.3 µM) in the experiment on CHO and 4 µg/mL (≈ 30.8 µM) in the experiment with B16-F10.
On to `CNC(=N)NCCC[C@H](N)C(=O)O` [TILARGININE], for which the IC50 in the experiment with BV-2 [7] amounted to 16.3 µM.
